Bounds are passed on as bounds.

Histone deacetylase 1, sequence (Q13547 whole entry): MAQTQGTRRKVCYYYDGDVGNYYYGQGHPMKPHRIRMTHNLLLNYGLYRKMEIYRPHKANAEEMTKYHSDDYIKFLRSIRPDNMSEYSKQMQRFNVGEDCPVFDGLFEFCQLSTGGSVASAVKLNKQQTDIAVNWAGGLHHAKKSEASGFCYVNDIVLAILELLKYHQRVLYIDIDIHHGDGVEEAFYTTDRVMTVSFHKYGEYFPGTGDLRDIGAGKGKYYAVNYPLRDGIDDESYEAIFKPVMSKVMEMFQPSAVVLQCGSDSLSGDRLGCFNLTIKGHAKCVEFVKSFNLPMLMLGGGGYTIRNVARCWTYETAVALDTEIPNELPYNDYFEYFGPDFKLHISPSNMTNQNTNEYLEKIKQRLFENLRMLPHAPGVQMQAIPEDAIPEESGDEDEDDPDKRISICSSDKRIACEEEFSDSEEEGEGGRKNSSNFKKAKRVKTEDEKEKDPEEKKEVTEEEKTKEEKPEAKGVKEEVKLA

The experiment addresses Histone deacetylase 1 (Homo sapiens, UniProt Q13547). Description: Inhibition of HDAC1 (unknown origin).
For `COc1cc(OC)cc(N(CCNC(C)C)c2ccc3ncc(-c4cnn(Cc5ccc(C(=O)NO)cc5)c4)nc3c2)c1`, the IC50 (in general, the midpoint of a concentration-inhibition curve) is over 1000 nM.

Molecule `COc1cc(OC)cc(N(CC2CC2)c2ccc3ncc(-c4cnn(CCCC(=O)NO)c4)nc3c2)c1` registered an IC50 of over 1000 nM.

On to `COc1cc(OC)cc(N(CCNC(C)C)c2ccc3ncc(-c4cnn(CCCCCC(=O)NO)c4)nc3c2)c1`, for which the half-inhibitory concentration (IC50) was found to be 4.4 nM.

For the molecule `COc1cc(OC)cc(N(CCNC(C)C)c2ccc3ncc(-c4cnn(CCc5ccc(C(=O)NO)cc5)c4)nc3c2)c1`, the IC50 was 69 nM.

With `COc1cc(OC)cc(N(CCNC(C)C)c2ccc3ncc(-c4cnn(CCC(=O)Nc5ccc(C(=O)NO)cc5)c4)nc3c2)c1`, the IC50 worked out at 5.7 nM.

The molecule `COc1cc(OC)cc(N(CCNC(C)C)c2ccc3ncc(-c4cnn(CCCCCCCC(=O)NO)c4)nc3c2)c1` returned a concentration for half-maximal inhibition (IC50) of 6.3 nM.

Consider `COc1cc(OC)cc(N(CC2CC2)c2ccc3ncc(-c4cnn(CCCCCCCC(=O)NO)c4)nc3c2)c1`, for which the IC50 is 172 nM.

In the case of `COc1cc(OC)cc(N(CCNC(C)C)c2ccc3ncc(-c4cnn(CCCC(=O)NO)c4)nc3c2)c1`, the concentration for half-maximal inhibition (IC50) came out at 653 nM.

Molecule `COc1cc(OC)cc(N(CCNC(C)C)c2ccc3ncc(-c4cnn(CCCCCCCCC(=O)NO)c4)nc3c2)c1` registered an IC50 of 16 nM.

Regarding `COc1cc(OC)cc(N(CCNC(C)C)c2ccc3ncc(-c4cnn(Cc5ccc(CC(=O)NO)cc5)c4)nc3c2)c1`, the IC50 was over 1000 nM.

In turn, `COc1cc(OC)cc(N(CCNC(C)C)c2ccc3ncc(-c4cnn(CCCCCOc5ccc(C(=O)NO)cc5)c4)nc3c2)c1` gave an IC50 of 273 nM.

Take `COc1cc(OC)cc(N(CCNC(C)C)c2ccc3ncc(-c4cnn(Cc5cccc(C(=O)NO)c5)c4)nc3c2)c1`: the IC50 was over 1000 nM.

The molecule `COc1cc(OC)cc(N(CC2CC2)c2ccc3ncc(-c4cnn(CCCCC(=O)NO)c4)nc3c2)c1` had an IC50 of 177 nM.

`COc1cc(OC)cc(N(CC2CC2)c2ccc3ncc(-c4cnn(CCCCCC(=O)NO)c4)nc3c2)c1` returned an IC50 of 77 nM.

`COc1cc(OC)cc(N(CCNC(C)C)c2ccc3ncc(-c4cnn(CCCCOc5ccc(C(=O)NO)cc5)c4)nc3c2)c1` displayed an IC50 of 160 nM.

Molecule `COc1cc(OC)cc(N(CCNC(C)C)c2ccc3ncc(-c4cnn(CCCOc5ccc(C(=O)NO)cc5)c4)nc3c2)c1` gave an IC50 of 126 nM.

(Values after ChEMBL document CHEMBL5150061, “Design and Synthesis of Fibroblast Growth Factor Receptor (FGFR) and Histone Deacetylase (HDAC) Dual Inhibitors for the Treatment of Cancer” (J Med Chem, 2022).)
